System: PCC deficient cells
Method: Control cells and PCC cells obtained from patients with PA and generated through CRISPR/CAS9 technology are grown in media with and without succinate supplementation and the metabolite profile of cell extracts is determined by metabolomic techniques. First, PCC deficient cells are grown in T-25 flasks in standard DMEM medium with and without supplemental succinate (0.1-2 mmol/L). Cells are harvested, lysed by sonication and intracellular concentrations of TCA cycle intermediates are measured by liquid chromatography-mass spectrometry (LC-MS)/MS. Next, flux through the TCA cycle is measured by incorporation of radiolabel from uniformly labeled ^14C-palmitate into TCA cycle intermediates after incubation with PPC deficient and control cells. PCC deficient cell lines are grown in DMEM complete media and transferred to 6-well plates at a seeding density of ˜200,000 cells/well. The media in the wells is changed after 24 hours to DMEM media containing 5% dialyzed fetal bovine serum (FBS). After approximately one hour, the first time point (180 minutes) receives DMEM 5% dialyzed FBS containing universally labeled palmitate with ^13C […]. The cells are incubated at 37° C., 4% CO2 for the following time points: 180 minutes, 60 minutes, 30 minutes, 10 minutes and 0 minutes. The 0 minute time point receives no isotopic labeling.

SMILES: O=C(O)CCC(=O)O [succinate]
- decreased level of TCA cycle intermediates (cell lines from patients with PA or MMA, succinate supplementation 0.1-2 mmol/L): expected to be reversed
- impaired incorporation of label from palmitate through the TCA cycle into protein (succinate supplementation): expected to be reversed
